Experimental data taken from patent publication US20260193274A1, “AKT1 MODULATORS” (Alterome Therapeutics, Inc., priority 2022, published 2026).

Target: T1, AKT1-E17K (Homo sapiens, UniProt P31749, E17K)
T1 construct: host or cells: HEK-293 (ATCC CRL-1573)
Assay: NanoBRET Target Engagement (TE) Assay
Type: cell-based
Conditions: full length AKT E17K NanoLuc fusion in transfected HEK-293 cells; 2 hr equilibration with tracer and compound
Source text: NanoBRET is a highly specific and validated cell-based technique for assessing target engagement (Vasta et al., 2018, Cell Chem Biol. 25(2):206-214). The NanoBRET™ Target Engagement (TE) Intracellular Kinase Assays are based on the NanoBRET™ System (Promega Corporation), an energy transfer technique designed to measure molecular proximity in living cells. The NanoBRET™ TE Assays measure the apparent affinity of test compounds by competitive displacement of the NanoBRET™ tracer compound, which is a cell permeable molecule engineered to be reversibly bound to a NanoLuc® luciferase-kinase fusion expressed in cells. For compound screening, when a test compound binds to the selected kinase, the BRET signal is attenuated. For kinase inhibitors in particular, intracellular target selectivity is fundamental to pharmacological mechanism and allows the proteins of interest to be in the correct cellular confirmation. Although non-cell-based techniques have been developed to measure kinase binding or enzymatic inhibition with accuracy and precision, such approaches can fail to accurately predict engagement of the full-length target protein in the more complex and biologically relevant cellular context (Knight and Shokat, 2005, Chem. Biol. 12, 621-637; Smyth and Collins, 2009, J. Chem. Biol. 2, 131-151). […] Briefly, HEK-293 cells (ATCC Cat #CRL-1573) were used for transfection purposes using FuGENE HD Transfection Reagent (Promega Cat #E2311). All cells were evaluated for viability prior to transfection and optimization of the transfection was done prior to experimentation. Greater than 95% viability was used for all experiments. Following transfection, cells were washed and resuspended in Opti-MEM. NanoBRET assays were performed in white, 384-well plates (Corning) at a density of 2×10^5 cells/well. All example compounds were prepared as concentrated stock solutions in DMSO (Sigma-Aldrich). Compounds are dissolved in DMSO to make 10 mM stock solution. Example compounds were transferred as 40 μL of 10 mM stock solution to a 384 pp-plate (LABCYTE, PP-0200) and diluted in 3-fold, 10-point dilution via transferring […] by Apricot liquid handler. A Labcyte ECHO 550 compound dispenser was used to facilitate compound transfer directly to cells. Cells were equilibrated for 2 hr with energy transfer probes and example compound prior to BRET measurements. The AKTE17K (Promega Cat #NV2421) as well as specific probe (NanoBRET tracer, Promega Cat #N264B) was prepared at a concentration of 20× in tracer dilution buffer (12.5 mM HEPES, 31.25% PEG-400, pH 7.5). For target engagement analysis, the energy transfer probes were added to the cells at concentrations optimized for the target in question (AKT E17K). Following compound incubation, NanoBRET NanoGlo Substrate (Promega Cat #N157D) and Extracellular Nanoluc Inhibitor (Promega Cat #N235C) was added according to the manufacturer's recommended protocol, and luminescence was measured on Envision Reader (Perkin Elmer) Multimode Luminometer equipped with 450 nmBPfilter (donor) and 600 nmLPfilter (acceptor), using 0.5 s integration time. Milli-BRET units (mBU) are calculated by multiplying the raw BRET values by 1000. Apparent tracer affinity values (EC50) were determined using the sigmoidal dose-response (variable slope). Competitive displacement data were then plotted and data were fit to determine the EC50 value for each example compound.

T1 sequence (P31749 whole entry E17K): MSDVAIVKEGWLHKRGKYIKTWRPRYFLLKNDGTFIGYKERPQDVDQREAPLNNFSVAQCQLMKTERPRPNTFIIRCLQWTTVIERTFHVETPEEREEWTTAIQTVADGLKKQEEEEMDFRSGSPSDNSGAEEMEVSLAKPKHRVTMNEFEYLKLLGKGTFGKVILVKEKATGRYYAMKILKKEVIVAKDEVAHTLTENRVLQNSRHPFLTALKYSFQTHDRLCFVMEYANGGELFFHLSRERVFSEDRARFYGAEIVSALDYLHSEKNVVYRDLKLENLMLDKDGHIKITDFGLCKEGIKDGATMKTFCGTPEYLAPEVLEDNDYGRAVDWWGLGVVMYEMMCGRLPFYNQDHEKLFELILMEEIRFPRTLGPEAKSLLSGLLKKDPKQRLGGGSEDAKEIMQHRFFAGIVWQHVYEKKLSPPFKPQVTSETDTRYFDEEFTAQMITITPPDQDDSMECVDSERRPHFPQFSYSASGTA

N#CN1CCCC2(CCN(Cc3ccc(-n4c(-c5cccnc5N)nc5ccc(-c6ccccc6)nc54)cc3)CC2)C1 [Example 24, 9-(4-(2-(2-Aminopyridin-3-yl)-5-phenyl-3H-imidazo[4,5-b]pyridin-3-yl)benzyl)-2,9-diazaspiro[5.5]undecane-2-carbonitrile]
IC50: 60 to 600 nM

C[C@H]1CN(Cc2ccc(-n3c(-c4cccnc4N)nc4ccc(-c5ccccc5)nc43)cc2)C[C@H](C)N1C#N [Example 25, (2S,6S)-4-(4-(2-(2-Aminopyridin-3-yl)-5-phenyl-3H-imidazo[4,5-b]pyridin-3-yl)benzyl)-2,6-dimethylpiperazine-1-carbonitrile]
IC50: 60 to 600 nM

C[C@@H]1CN(Cc2ccc(-n3c(-c4cccnc4N)nc4ccc(-c5ccccc5)nc43)cc2)C[C@@H](C)N1C#N [Example 26, (2R,6R)-4-(4-(2-(2-Aminopyridin-3-yl)-5-phenyl-3H-imidazo[4,5-b]pyridin-3-yl)benzyl)-2,6-dimethylpiperazine-1-carbonitrile]
IC50: > 600 nM

C[C@@H]1CN(Cc2ccc(-n3c(-c4cccnc4N)nc4ccc(-c5ccccc5)nc43)cc2)CCN1C#N [Example 27, (R)-4-(4-(2-(2-Aminopyridin-3-yl)-5-phenyl-3H-imidazo[4,5-b]pyridin-3-yl)benzyl)-2-methylpiperazine-1-carbonitrile]
IC50: > 600 nM

N#CN1C2CCC1CN(Cc1ccc(-n3c(-c4cccnc4N)nc4ccc(-c5ccccc5)nc43)cc1)C2 [Example 28, 3-(4-(2-(2-Aminopyridin-3-yl)-5-phenyl-3H-imidazo[4,5-b]pyridin-3-yl)benzyl)-3,8-diazabicyclo[3.2.1]octane-8-carbonitrile]
IC50: 60 to 600 nM

N#CN1CC2CCC(C1)N2Cc1ccc(-n2c(-c3cccnc3N)nc3ccc(-c4ccccc4)nc32)cc1 [Example 29, 8-(4-(2-(2-Aminopyridin-3-yl)-5-phenyl-3H-imidazo[4,5-b]pyridin-3-yl)benzyl)-3,8-diazabicyclo[3.2.1]octane-3-carbonitrile]
IC50: 15 to 60 nM

N#CNC1CCCN(Cc2ccc(-n3c(-c4cccnc4N)nc4ccc(-c5ccccc5)nc43)cc2)CC1 (centres unmarked) [Example 30, N-(1-(4-(2-(2-Aminopyridin-3-yl)-5-phenyl-3H-imidazo[4,5-b]pyridin-3-yl)benzyl)azepan-4-yl)cyanamide]
IC50: 15 to 60 nM

N#CNC1CCCCN(Cc2ccc(-n3c(-c4cccnc4N)nc4ccc(-c5ccccc5)nc43)cc2)C1 (centres unmarked) [Example 31, N-(1-(4-(2-(2-Aminopyridin-3-yl)-5-phenyl-3H-imidazo[4,5-b]pyridin-3-yl)benzyl)azepan-3-yl)cyanamide]
IC50: 60 to 600 nM

C[C@H]1CN(Cc2ccc(-n3c(-c4cccnc4N)nc4ccc(-c5ccccc5)nc43)cc2)CCN1C#N [Example 32, (S)-4-(4-(2-(2-Aminopyridin-3-yl)-5-phenyl-3H-imidazo[4,5-b]pyridin-3-yl)benzyl)-2-methylpiperazine-1-carbonitrile]
IC50: > 600 nM

N#CN1CCN(Cc2ccc(-n3c(-c4cccnc4N)nc4ccc(-c5ccccc5)nc43)cc2)CC12CC2 [Example 33, 7-(4-(2-(2-Aminopyridin-3-yl)-5-phenyl-3H-imidazo[4,5-b]pyridin-3-yl)benzyl)-4,7-diazaspiro[2.5]octane-4-carbonitrile]
IC50: 60 to 600 nM

N#CN1C[C@@H]2C[C@H]1CN2Cc1ccc(-n2c(-c3cccnc3N)nc3ccc(-c4ccccc4)nc32)cc1 [Example 34, (1S,4S)-5-(4-(2-(2-Aminopyridin-3-yl)-5-phenyl-3H-imidazo[4,5-b]pyridin-3-yl)benzyl)-2,5-diazabicyclo[2.2.1]heptane-2-carbonitrile]
IC50: 60 to 600 nM

N#CN1C[C@H]2C[C@@H]1CN2Cc1ccc(-n2c(-c3cccnc3N)nc3ccc(-c4ccccc4)nc32)cc1 [Example 35, (1R,4R)-5-(4-(2-(2-Aminopyridin-3-yl)-5-phenyl-3H-imidazo[4,5-b]pyridin-3-yl)benzyl)-2,5-diazabicyclo[2.2.1]heptane-2-carbonitrile]
IC50: 60 to 600 nM

C[C@@H]1CN(Cc2ccc(-n3c(-c4cccnc4N)nc4ccc(-c5ccccc5)nc43)cc2)C[C@H](C)N1C#N [Example 36, (2S,6R)-4-(4-(2-(2-Aminopyridin-3-yl)-5-phenyl-3H-imidazo[4,5-b]pyridin-3-yl)benzyl)-2,6-dimethylpiperazine-1-carbonitrile]
IC50: > 600 nM

N#CN1CC2CCC1CN2Cc1ccc(-n2c(-c3cccnc3N)nc3ccc(-c4ccccc4)nc32)cc1 (centres unmarked) [Example 37, 5-(4-(2-(2-Aminopyridin-3-yl)-5-phenyl-3H-imidazo[4,5-b]pyridin-3-yl)benzyl)-2,5-diazabicyclo[2.2.2]octane-2-carbonitrile]
IC50: 60 to 600 nM

N#CN1CCC2(C1)CN(Cc1ccc(-n3c(-c4cccnc4N)nc4ccc(-c5ccccc5)nc43)cc1)C2 [Example 38, 2-(4-(2-(2-Aminopyridin-3-yl)-5-phenyl-3H-imidazo[4,5-b]pyridin-3-yl)benzyl)-2,6-diazaspiro[3.4]octane-6-carbonitrile]
IC50: < 15 nM

N#CN1CCCC2(C1)CN(Cc1ccc(-n3c(-c4cccnc4N)nc4ccc(-c5ccccc5)nc43)cc1)C2 [Example 39, 2-(4-(2-(2-Aminopyridin-3-yl)-5-phenyl-3H-imidazo[4,5-b]pyridin-3-yl)benzyl)-2,6-diazaspiro[3.5]nonane-6-carbonitrile]
IC50: 60 to 600 nM

N#CN1CC[C@]2(CCN(Cc3ccc(-n4c(-c5cccnc5N)nc5ccc(-c6ccccc6)nc54)cc3)C2)C1 [Example 40, (S)-7-(4-(2-(2-Aminopyridin-3-yl)-5-phenyl-3H-imidazo[4,5-b]pyridin-3-yl)benzyl)-2,7-diazaspiro[4.4]nonane-2-carbonitrile]
IC50: < 15 nM

[2H]C([2H])([2H])N(C#N)C1CCN(Cc2ccc(-n3c(-c4cccnc4N)nc4ccc(-c5ccccc5)nc43)cc2)CC1 [Example 41, N-(1-(4-(2-(2-Aminopyridin-3-yl)-5-phenyl-3H-imidazo[4,5-b]pyridin-3-yl)benzyl)piperidin-4-yl)-N-(methyl-d3)cyanamide]
IC50: 15 to 60 nM

N#CNN1CCN(Cc2ccc(-n3c(-c4cccnc4N)nc4ccc(-c5ccccc5)nc43)cc2)CC1 [Example 42, N-(4-(4-(2-(2-Aminopyridin-3-yl)-5-phenyl-3H-imidazo[4,5-b]pyridin-3-yl)benzyl)piperazin-1-yl)cyanamide]
IC50: < 15 nM

N#CN1C[C@@H]2CN(Cc3ccc(-n4c(-c5cccnc5N)nc5ccc(-c6ccccc6)nc54)cc3)C[C@@H]2C1 [Example 43, (3aR,6aS)-5-(4-(2-(2-Aminopyridin-3-yl)-5-phenyl-3H-imidazo[4,5-b]pyridin-3-yl)benzyl)hexahydropyrrolo[3,4-c]pyrrole-2(1H)-carbonitrile]
IC50: 60 to 600 nM
